Results from PMC4503722, “Novel Phenotypic Outcomes Identified for a Public Collection of Approved Drugs from a Publicly Accessible Panel of Assays” (PLoS ONE, 2015).

What follows are compounds tested on endothelial tube formation in co-cultures of ECFCs and ADSCs treated with VEGF (assay: cells). Settings: Homo sapiens, IC50 / EC50; endothelial tube area, ADSC/ECFC co-culture; read-out: Anti-Angiogenesis.
Format: cell-based, human

SMILES | IC50
CC[C@@]1(O)C(=O)OCc2c1cc1n(c2=O)Cc2c-1nc1ccccc1c2/C=N/OC(C)(C)C [Gimatecan] | 0.002 µM
CCCCC1C(=O)N(c2ccccc2)N(c2ccc(O)cc2)C1=O (stereo not drawn) [Oxyphenbutazone] | 3.29 µM

Same assay, conditions: Homo sapiens, read-out: Anti-Angio IC50

SMILES | IC50
CCc1nc(N)nc(N)c1-c1ccc(Cl)cc1 [pyrimethamine, reference compound] | > 10 µM

What follows are compounds tested on nuclear β-catenin in C2C12 cells (assay: cells). Settings: Mus musculus, C2C12, IC50 / EC50; C2C12 beta-catenin translocation; read-out: Wnt Pathway.
Format: cell-based

SMILES | EC50
CC[C@@]1(O)C(=O)OCc2c1cc1n(c2=O)Cc2c-1nc1ccccc1c2/C=N/OC(C)(C)C [Gimatecan] | 0.0032 µM
CCCCC1C(=O)N(c2ccccc2)N(c2ccc(O)cc2)C1=O (stereo not drawn) [Oxyphenbutazone] | 4.92 µM

Same assay, conditions: Mus musculus, C2C12, read-out: Wnt Pathway

SMILES | EC50
CCc1nc(N)nc(N)c1-c1ccc(Cl)cc1 [pyrimethamine, reference compound] | 0.0677 µM

Same assay, conditions: Mus musculus, C2C12, read-out: Wnt pot. EC50

SMILES | EC50
CCc1nc(N)nc(N)c1-c1ccc(Cl)cc1 [pyrimethamine, reference compound] | 0.068 µM

What follows are compounds tested on INS-1E cells (assay: cells). Settings: Rattus norvegicus, INS-1E, read-out: Ins. sec. EC50.
Format: cell-based, rat

SMILES | EC50
CCc1nc(N)nc(N)c1-c1ccc(Cl)cc1 [pyrimethamine, reference compound] | > 10 µM

Same assay, conditions: Rattus norvegicus; IC50 / EC50; INS-1E; read-out: Insulin Secretion

SMILES | EC50
CC[C@@]1(O)C(=O)OCc2c1cc1n(c2=O)Cc2c-1nc1ccccc1c2/C=N/OC(C)(C)C [Gimatecan] | > 10 µM
CCCCC1C(=O)N(c2ccccc2)N(c2ccc(O)cc2)C1=O (stereo not drawn) [Oxyphenbutazone] | > 10 µM

The compounds below were run on NCI-H716 cells (assay: cells). Settings: Homo sapiens, NCI-H716, read-out: GLP1 sec. EC50.
Format: cell-based, Human

SMILES | EC50
CCc1nc(N)nc(N)c1-c1ccc(Cl)cc1 [pyrimethamine, reference compound] | > 10 µM

Same assay, conditions: Homo sapiens; IC50 / EC50; NCI-H716; read-out: GLP 1 Secretion

SMILES | EC50
CC[C@@]1(O)C(=O)OCc2c1cc1n(c2=O)Cc2c-1nc1ccccc1c2/C=N/OC(C)(C)C [Gimatecan] | > 10 µM
CCCCC1C(=O)N(c2ccccc2)N(c2ccc(O)cc2)C1=O (stereo not drawn) [Oxyphenbutazone] | > 10 µM

These compounds were tested on HeLa cells (assay: cells). Settings: Homo sapiens, HeLa, IC50 / EC50; HeLa; read-out: CellCycle G2/M.
Format: cell-based

SMILES | EC50
CC[C@@]1(O)C(=O)OCc2c1cc1n(c2=O)Cc2c-1nc1ccccc1c2/C=N/OC(C)(C)C [Gimatecan] | > 10 µM
CCCCC1C(=O)N(c2ccccc2)N(c2ccc(O)cc2)C1=O (stereo not drawn) [Oxyphenbutazone] | > 10 µM

Same assay, conditions: Homo sapiens, HeLa, read-out: CellCycle G2/M

SMILES | EC50
CCc1nc(N)nc(N)c1-c1ccc(Cl)cc1 [pyrimethamine, reference compound] | > 10 µM

These compounds were tested on DLD-1 (assay: cells). Settings: Homo sapiens, DLD-1, 72 h, read-out: DLD-1 viab. IC50.
Format: cell-based

SMILES | IC50
CCc1nc(N)nc(N)c1-c1ccc(Cl)cc1 [pyrimethamine, reference compound] | > 20 µM

Same assay, conditions: Homo sapiens, DLD-1, basal; read-out: Basal_Viability ATP DLD-1

SMILES | IC50
CC[C@@]1(O)C(=O)OCc2c1cc1n(c2=O)Cc2c-1nc1ccccc1c2/C=N/OC(C)(C)C [Gimatecan] | 0.315 µM
CCCCC1C(=O)N(c2ccccc2)N(c2ccc(O)cc2)C1=O (stereo not drawn) [Oxyphenbutazone] | 5.87 µM

What follows are compounds tested on SW480 (assay: cells). Settings: Homo sapiens, SW480, 72 h, read-out: SW480 viab. IC50.
Format: cell-based

SMILES | IC50
CCc1nc(N)nc(N)c1-c1ccc(Cl)cc1 [pyrimethamine, reference compound] | 12.5 µM

Same assay, conditions: Homo sapiens, SW480, basal; read-out: Basal_Viability ATP SW480

SMILES | IC50
CC[C@@]1(O)C(=O)OCc2c1cc1n(c2=O)Cc2c-1nc1ccccc1c2/C=N/OC(C)(C)C [Gimatecan] | 0.222 µM
CCCCC1C(=O)N(c2ccccc2)N(c2ccc(O)cc2)C1=O (stereo not drawn) [Oxyphenbutazone] | 3.01 µM

Same assay, conditions: Homo sapiens, SW480, read-out: Basal_Viability ATP SW480

SMILES | IC50
CCc1nc(N)nc(N)c1-c1ccc(Cl)cc1 [pyrimethamine, reference compound] | 12.5 µM

What follows are compounds tested on HCT116 (assay: cells). Settings: Homo sapiens, HCT-116, 72 h, read-out: HCT-116 viab. IC50.
Format: cell-based

SMILES | IC50
CCc1nc(N)nc(N)c1-c1ccc(Cl)cc1 [pyrimethamine, reference compound] | 18.2 µM

Same assay, conditions: Homo sapiens, HCT-116, basal; read-out: Basal_Viability ATP HCT116

SMILES | IC50
CC[C@@]1(O)C(=O)OCc2c1cc1n(c2=O)Cc2c-1nc1ccccc1c2/C=N/OC(C)(C)C [Gimatecan] | 0.0667 µM
CCCCC1C(=O)N(c2ccccc2)N(c2ccc(O)cc2)C1=O (stereo not drawn) [Oxyphenbutazone] | 15.7 µM

Same assay, conditions: Homo sapiens, HCT-116, read-out: Basal_Viability ATP HCT116

SMILES | IC50
CCc1nc(N)nc(N)c1-c1ccc(Cl)cc1 [pyrimethamine, reference compound] | 18.2 µM

What follows are compounds tested on HCT116 cells treated with a GSK3β inhibitor (assay: cells). Settings: Homo sapiens, HCT-116, 72 h, read-out: HCT-116 (GSK3β) viab. IC50.
Format: cell-based

SMILES | IC50
CCc1nc(N)nc(N)c1-c1ccc(Cl)cc1 [pyrimethamine, reference compound] | > 20 µM

Same assay, conditions: Homo sapiens, HCT-116, read-out: GSK3b inh pretreated_Viability ATP HCT116

SMILES | IC50
CC[C@@]1(O)C(=O)OCc2c1cc1n(c2=O)Cc2c-1nc1ccccc1c2/C=N/OC(C)(C)C [Gimatecan] | 0.0667 µM
CCCCC1C(=O)N(c2ccccc2)N(c2ccc(O)cc2)C1=O (stereo not drawn) [Oxyphenbutazone] | > 20 µM

The compounds below were run against T1, hp70S6K1 (RPS6KB1) (Homo sapiens, UniProt P23443) (assay: Cerep LANCE kinase assay hp70S6K1 (S1 assay 31)). Settings: kinase assay; read-out: p70S6K1.
T1 construct: purchased Cerep (LANCE kinase assay platform, contract assay)
Format: biochemical

T1 sequence (P23443 whole entry): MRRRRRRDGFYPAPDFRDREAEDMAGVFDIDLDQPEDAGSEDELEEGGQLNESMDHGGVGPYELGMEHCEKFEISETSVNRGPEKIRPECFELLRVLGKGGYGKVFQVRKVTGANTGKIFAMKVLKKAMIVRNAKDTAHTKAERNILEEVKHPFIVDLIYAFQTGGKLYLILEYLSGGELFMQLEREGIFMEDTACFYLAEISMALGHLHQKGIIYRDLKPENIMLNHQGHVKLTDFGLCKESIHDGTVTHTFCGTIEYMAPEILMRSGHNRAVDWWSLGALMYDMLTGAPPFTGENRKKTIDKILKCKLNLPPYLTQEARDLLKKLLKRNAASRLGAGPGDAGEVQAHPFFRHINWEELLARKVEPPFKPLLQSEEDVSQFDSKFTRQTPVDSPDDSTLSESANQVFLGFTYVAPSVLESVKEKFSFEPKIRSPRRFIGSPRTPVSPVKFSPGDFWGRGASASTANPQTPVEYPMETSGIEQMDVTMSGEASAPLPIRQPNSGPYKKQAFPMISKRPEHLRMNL

SMILES | IC50
CCc1nc(N)nc(N)c1-c1ccc(Cl)cc1 [pyrimethamine, reference compound] | > 20 µM

Same assay, conditions: read-out: p70S6K1

SMILES | IC50
CC[C@@]1(O)C(=O)OCc2c1cc1n(c2=O)Cc2c-1nc1ccccc1c2/C=N/OC(C)(C)C [Gimatecan] | > 20 µM
CCCCC1C(=O)N(c2ccccc2)N(c2ccc(O)cc2)C1=O (stereo not drawn) [Oxyphenbutazone] | > 20 µM

What follows are compounds tested against T2, hKDR (Homo sapiens, UniProt P35968) (assay: Cerep LANCE kinase assay hKDR (S1 assay 32)). Settings: kinase assay; read-out: KDR.
T2 construct: purchased Cerep (LANCE kinase assay platform, contract assay)
Format: biochemical

T2 sequence (P35968 20-1356): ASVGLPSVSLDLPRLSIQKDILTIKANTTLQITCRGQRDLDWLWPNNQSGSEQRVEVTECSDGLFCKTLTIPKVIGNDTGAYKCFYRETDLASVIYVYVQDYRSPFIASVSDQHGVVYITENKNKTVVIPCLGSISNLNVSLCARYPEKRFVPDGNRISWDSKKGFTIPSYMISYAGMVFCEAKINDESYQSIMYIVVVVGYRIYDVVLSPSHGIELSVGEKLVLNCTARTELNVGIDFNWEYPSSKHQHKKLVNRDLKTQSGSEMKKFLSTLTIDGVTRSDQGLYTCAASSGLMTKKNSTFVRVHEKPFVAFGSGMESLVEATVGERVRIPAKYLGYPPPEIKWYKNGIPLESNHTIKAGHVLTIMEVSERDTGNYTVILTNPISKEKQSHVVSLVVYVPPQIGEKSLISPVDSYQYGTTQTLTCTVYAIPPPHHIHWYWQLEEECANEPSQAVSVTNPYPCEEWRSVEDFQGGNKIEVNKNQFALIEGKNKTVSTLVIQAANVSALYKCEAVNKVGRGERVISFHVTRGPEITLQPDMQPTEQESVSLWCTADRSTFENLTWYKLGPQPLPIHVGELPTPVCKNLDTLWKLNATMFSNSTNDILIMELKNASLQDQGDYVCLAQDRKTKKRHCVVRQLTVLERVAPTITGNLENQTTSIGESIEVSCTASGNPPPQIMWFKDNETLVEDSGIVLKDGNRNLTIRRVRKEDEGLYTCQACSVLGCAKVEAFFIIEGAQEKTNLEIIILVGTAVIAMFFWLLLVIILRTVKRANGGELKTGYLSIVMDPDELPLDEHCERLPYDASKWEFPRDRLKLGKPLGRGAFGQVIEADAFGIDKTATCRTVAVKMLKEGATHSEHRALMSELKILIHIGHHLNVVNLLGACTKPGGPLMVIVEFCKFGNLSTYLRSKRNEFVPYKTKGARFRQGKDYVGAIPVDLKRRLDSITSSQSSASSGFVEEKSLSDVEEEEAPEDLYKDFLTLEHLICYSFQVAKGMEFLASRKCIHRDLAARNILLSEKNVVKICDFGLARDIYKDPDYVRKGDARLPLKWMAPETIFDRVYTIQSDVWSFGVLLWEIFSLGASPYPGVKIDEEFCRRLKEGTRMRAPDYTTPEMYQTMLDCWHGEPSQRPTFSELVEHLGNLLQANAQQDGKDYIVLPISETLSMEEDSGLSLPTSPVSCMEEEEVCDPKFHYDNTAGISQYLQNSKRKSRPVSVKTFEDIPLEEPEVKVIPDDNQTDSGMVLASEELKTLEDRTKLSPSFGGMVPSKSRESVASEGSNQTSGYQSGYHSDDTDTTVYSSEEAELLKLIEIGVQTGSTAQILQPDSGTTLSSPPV

SMILES | IC50
CCc1nc(N)nc(N)c1-c1ccc(Cl)cc1 [pyrimethamine, reference compound] | > 20 µM

Same assay, conditions: read-out: KDR

SMILES | IC50
CC[C@@]1(O)C(=O)OCc2c1cc1n(c2=O)Cc2c-1nc1ccccc1c2/C=N/OC(C)(C)C [Gimatecan] | > 20 µM
CCCCC1C(=O)N(c2ccccc2)N(c2ccc(O)cc2)C1=O (stereo not drawn) [Oxyphenbutazone] | > 20 µM

Each compound was assayed against T3, hJAK2 (Homo sapiens, UniProt O60674) (assay: Cerep LANCE kinase assay hJAK2 (S1 assay 33)). Settings: kinase assay; read-out: JAK2.
T3 construct: purchased Cerep (LANCE kinase assay platform, contract assay)
Format: biochemical

T3 sequence (O60674 whole entry): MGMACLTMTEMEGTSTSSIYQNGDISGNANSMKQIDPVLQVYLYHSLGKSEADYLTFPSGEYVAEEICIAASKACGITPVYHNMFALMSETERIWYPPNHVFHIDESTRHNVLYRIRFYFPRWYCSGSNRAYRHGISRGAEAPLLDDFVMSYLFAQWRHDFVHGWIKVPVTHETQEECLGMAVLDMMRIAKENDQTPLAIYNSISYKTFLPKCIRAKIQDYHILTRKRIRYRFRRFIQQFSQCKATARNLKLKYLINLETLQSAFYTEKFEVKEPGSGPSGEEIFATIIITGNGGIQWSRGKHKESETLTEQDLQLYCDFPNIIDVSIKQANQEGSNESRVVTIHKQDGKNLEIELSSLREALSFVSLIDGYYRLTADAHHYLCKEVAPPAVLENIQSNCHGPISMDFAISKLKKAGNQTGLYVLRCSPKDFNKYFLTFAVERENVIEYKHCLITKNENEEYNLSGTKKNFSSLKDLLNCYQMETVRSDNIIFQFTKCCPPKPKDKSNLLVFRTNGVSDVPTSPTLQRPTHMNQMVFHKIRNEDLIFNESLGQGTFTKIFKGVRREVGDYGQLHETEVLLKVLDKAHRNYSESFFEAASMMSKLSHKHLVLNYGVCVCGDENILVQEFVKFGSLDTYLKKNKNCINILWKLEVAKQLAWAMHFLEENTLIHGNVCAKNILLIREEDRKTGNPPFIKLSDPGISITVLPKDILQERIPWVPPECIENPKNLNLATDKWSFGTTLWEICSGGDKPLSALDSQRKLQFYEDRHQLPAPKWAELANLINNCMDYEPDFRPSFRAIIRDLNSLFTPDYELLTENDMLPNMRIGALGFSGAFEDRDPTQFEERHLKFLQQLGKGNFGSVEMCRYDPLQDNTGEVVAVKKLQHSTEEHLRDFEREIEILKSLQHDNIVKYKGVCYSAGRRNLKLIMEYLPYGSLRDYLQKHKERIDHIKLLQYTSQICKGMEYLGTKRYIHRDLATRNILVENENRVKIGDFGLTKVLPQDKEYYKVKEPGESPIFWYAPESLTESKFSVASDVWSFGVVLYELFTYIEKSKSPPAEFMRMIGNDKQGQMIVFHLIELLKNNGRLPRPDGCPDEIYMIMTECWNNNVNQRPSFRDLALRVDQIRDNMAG

SMILES | IC50
CCc1nc(N)nc(N)c1-c1ccc(Cl)cc1 [pyrimethamine, reference compound] | > 20 µM

Same assay, conditions: read-out: JAK2

SMILES | IC50
CC[C@@]1(O)C(=O)OCc2c1cc1n(c2=O)Cc2c-1nc1ccccc1c2/C=N/OC(C)(C)C [Gimatecan] | > 20 µM
CCCCC1C(=O)N(c2ccccc2)N(c2ccc(O)cc2)C1=O (stereo not drawn) [Oxyphenbutazone] | > 20 µM

Each compound was assayed against T4, hGSK3b (Homo sapiens, UniProt P49841) (assay: Cerep LANCE kinase assay hGSK3b (S1 assay 34)). Settings: kinase assay; read-out: GSK3b.
T4 construct: purchased Cerep (LANCE kinase assay platform, contract assay)
Format: biochemical

T4 sequence (P49841 whole entry): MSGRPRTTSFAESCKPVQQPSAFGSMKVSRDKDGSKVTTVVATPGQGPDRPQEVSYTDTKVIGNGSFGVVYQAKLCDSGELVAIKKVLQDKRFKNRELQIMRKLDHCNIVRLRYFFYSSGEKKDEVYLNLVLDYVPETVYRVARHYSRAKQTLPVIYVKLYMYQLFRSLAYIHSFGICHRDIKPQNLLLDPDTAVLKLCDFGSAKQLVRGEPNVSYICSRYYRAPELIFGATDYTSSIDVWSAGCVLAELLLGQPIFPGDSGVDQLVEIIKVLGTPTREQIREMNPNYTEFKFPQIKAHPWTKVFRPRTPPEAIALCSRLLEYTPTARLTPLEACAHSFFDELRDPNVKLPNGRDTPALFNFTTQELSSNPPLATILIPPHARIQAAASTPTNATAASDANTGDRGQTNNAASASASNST

SMILES | IC50
CCc1nc(N)nc(N)c1-c1ccc(Cl)cc1 [pyrimethamine, reference compound] | > 20 µM

Same assay, conditions: read-out: GSK3b

SMILES | IC50
CC[C@@]1(O)C(=O)OCc2c1cc1n(c2=O)Cc2c-1nc1ccccc1c2/C=N/OC(C)(C)C [Gimatecan] | > 20 µM
CCCCC1C(=O)N(c2ccccc2)N(c2ccc(O)cc2)C1=O (stereo not drawn) [Oxyphenbutazone] | > 20 µM

The compounds below were run against T5, hFLT3 (Homo sapiens, UniProt P36888) (assay: Cerep LANCE kinase assay hFLT3 (S1 assay 35)). Settings: kinase assay; read-out: FLT3.
T5 construct: purchased Cerep (LANCE kinase assay platform, contract assay)
Format: biochemical

T5 sequence (P36888 27-993): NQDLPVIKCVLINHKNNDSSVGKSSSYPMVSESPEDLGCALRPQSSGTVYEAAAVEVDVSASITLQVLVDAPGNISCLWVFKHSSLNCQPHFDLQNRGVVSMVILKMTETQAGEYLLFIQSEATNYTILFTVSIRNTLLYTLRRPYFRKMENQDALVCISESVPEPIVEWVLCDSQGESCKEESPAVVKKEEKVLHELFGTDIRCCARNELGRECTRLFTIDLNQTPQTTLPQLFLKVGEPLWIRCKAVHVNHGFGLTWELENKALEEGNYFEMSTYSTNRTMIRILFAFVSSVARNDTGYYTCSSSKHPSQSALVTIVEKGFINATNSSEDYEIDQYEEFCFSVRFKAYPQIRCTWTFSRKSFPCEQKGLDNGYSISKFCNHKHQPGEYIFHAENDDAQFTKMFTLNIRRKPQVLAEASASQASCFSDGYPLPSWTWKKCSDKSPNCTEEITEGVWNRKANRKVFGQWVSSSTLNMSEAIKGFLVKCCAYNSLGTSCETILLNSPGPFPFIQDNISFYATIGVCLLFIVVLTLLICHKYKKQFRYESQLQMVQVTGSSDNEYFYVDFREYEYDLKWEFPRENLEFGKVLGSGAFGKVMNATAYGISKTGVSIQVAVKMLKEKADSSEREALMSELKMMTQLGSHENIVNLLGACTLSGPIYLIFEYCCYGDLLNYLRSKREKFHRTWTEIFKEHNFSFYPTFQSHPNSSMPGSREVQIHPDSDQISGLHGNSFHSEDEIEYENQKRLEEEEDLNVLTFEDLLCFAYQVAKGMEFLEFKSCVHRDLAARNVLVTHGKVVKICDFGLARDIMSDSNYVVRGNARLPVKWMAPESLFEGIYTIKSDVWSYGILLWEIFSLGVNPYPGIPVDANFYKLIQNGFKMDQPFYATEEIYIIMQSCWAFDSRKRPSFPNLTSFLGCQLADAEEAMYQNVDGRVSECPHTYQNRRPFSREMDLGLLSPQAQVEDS

SMILES | IC50
CCc1nc(N)nc(N)c1-c1ccc(Cl)cc1 [pyrimethamine, reference compound] | > 20 µM

Same assay, conditions: read-out: FLT3

SMILES | IC50
CC[C@@]1(O)C(=O)OCc2c1cc1n(c2=O)Cc2c-1nc1ccccc1c2/C=N/OC(C)(C)C [Gimatecan] | > 20 µM
CCCCC1C(=O)N(c2ccccc2)N(c2ccc(O)cc2)C1=O (stereo not drawn) [Oxyphenbutazone] | > 20 µM
